Data reported in patent publication US6255337A, “Anti-first-pass effect compounds and citrus extract” (Bioavailability Systems, L.L.C., priority 1999, dated 2001).
“Also recorded” adds a separate entry of the source. Read-outs that look alike come from different tables or passages of the source.

Legend:
human cytochrome P450 = test: Protocol C: Assessment of human cytochrome P450-mediated biotransformation (terfenadine, human hepatic S9); type: in vitro ADME
Procedure: The process of preparing incubation mixtures begins by mixing 10 uL of ethanol or an ethanolic solution containing an inhibitor with 100 uL of 100 mg/mL bovine serum albumin (Sigma) dissolved in reaction buffer at room temperature. Reaction buffer is composed of 0.10 M sodium phosphate, 1.0 mM ethylenediaminetetraacetic acid, and 5.0 mM magnesium chloride, pH 7.4 (all reagents: Fisher Scientific). Inhibitory chemicals used were ketoconazole (Research Diagnostics, Inc.), miconazole, bergapten, xanthotoxin (previous three from Sigma), bergamotin, imperatorin, isopimpinellin, psoralen, angelicin (previous five from Indofine Chemical Company, Inc.), and fractions or precipitates resulting from Protocols A and B above. When possible, final inhibitor concentrations were expressed in molarity by calculation from the weighed material or by interpolation from HPLC calibration curves prepared with reference materials; otherwise, concentrations are expressed as weight per volume. Reaction tubes are placed on ice in preparation for the manipulations that follow. Sufficient reaction buffer is added so that the final volume of each tube will be 500 uL, 5 uL of a 100-fold concentrate for generating reduced nicotinamide adenine dinucleotide phosphate is added (such that completed reaction mixture contains 1.0 mM nicotinamide adenine dinucleotide phosphate, 1 U/mL glucose-6-phosphate dehvdrogenase, and 10 mM glucose-6-phosphate; all from Sigma), and then human hiepatic S9 (Anatomic Gift Foundation) is thawed and added in sufficient amounts to cause readily detectable amounts of metabolites to be formed in control reactions (amount necessary varies among individuals, but 10 uL is typical).
The samples prepared above are readied for HPLC assessment using the protocol that follows. Each tube is vortex mixed and centrifuged for 10 min at setting 35, the resulting supernatant is transferred to a clean tube, and the liquid is evaporated using a Speed Vac apparatus. The residue in each tube is first dissolved in 40 uL 1:1 acetonitrile:water, 2.5 mL of acetonitrile is added, and the centrifuge-transfer-evaporate step just described is repeated.
The dry residue resulting from the above-described experiments and sample preparation protocol may be analyzed for terfienadine metabolites using the HPLC method described below and may also be used to quantitate the inhibitory chemicals that were added to the reaction (see Protocol B). Linear gradients are used for elution and are formed by mixing mobile phase A composed of water with mobile phase B composed of 0.025% (v/v) formic acid in acetonitrile (instrument: Hewlett Packard). The elution time, in minutes, the percentage of mobile phase B present in the mixed mobile phase, and the flow rate (mL/min) are as follows: 0, 10, 0.10; 2, 10, 0.10; 3.5, 10, 0.20; 4, 10, 0.25; 5, 10, 0.25; 30, 55, 0.25; 32, 98, 0.25; 33, 98, 0.40; 39.8, 98, 0.40; 40, 98, 0.25; 45, 10, 0.25; 45.25, 10, 0.20; 50, 10, 0.20; 50.25, 10, 0.10. The chromatographic column has dimensions of 150 mm length×2.1 mm internal diameter. is packed with a proprietary material (Prism, Keystone Scientific, Inc.), is protected with a 2 mm internal diameter column containing the same material and with a PTFE filter, and is maintained at 35+/-0.2 C. The dry sample residue is mixed with 60 uL of 1:1 acetonitrile:water followed by 40 uL water just prior to each 50.25 min run cycle. The column eluate from each 10 uL injection is monitored for fluorescence with excitation at 228 nm, emission at 291 nm, and bandpass filtration at 280 nm.

[1] = in words; cited from earlier work
first-pass effect = details: orally administered drugs; in words; cited from earlier work
[2] = system: first-pass effect of cyclosporin; details: heart transplant patients, cyclosporin co-administered with ketoconazole; cited from earlier work
cytochrome P450 = details: given to humans in large doses; in words; cited from earlier work
[3] = with inhibitors commonly given to humans; in words; cited from earlier work

For `O=c1ccc2ccc3occc3c2o1` [angelicin], which “first-pass effect inhibition (determined herein)” value (“first-pass effect inhibition” for short) (human cytochrome P450; in words) is on record?
The value was “ineffective”.

Which “first-pass effect inhibition” value (human cytochrome P450) does the source give for `CC(C)=CCC/C(C)=C/COc1c2ccoc2cc2oc(=O)ccc12` [bergamottin] here?
The value was “ineffective”.

Which toxicity / phototoxicity [1] does the source give for `COc1c2ccoc2cc2oc(=O)ccc12` [bergapten, 5-methoxypsoralen] here?
Its toxicity / phototoxicity is “toxic, in particular, phototoxic”.

Which “inhibition of the first-pass effect” value (first-pass effect) does the source give for `CC[C@H]1OC(=O)[C@H](C)[C@@H](O[C@H]2C[C@@](C)(OC)[C@@H](O)[C@H](C)O2)[C@H](C)[C@@H](O[C@@H]2O[C@H](C)C[C@H](N(C)C)[C@H]2O)[C@](C)(O)C[C@@H](C)C(=O)[C@H](C)[C@@H](O)[C@]1(C)O` [erythromycin] here?
The value was “identified as inhibitors of the first-pass effect”.

With `OC(Cn1cncn1)(Cn1cncn1)c1ccc(F)cc1F` [fluconazole] as the molecule, how does the “inhibition of the first-pass effect” value (first-pass effect) read?
Its value is “identified as inhibitors of the first-pass effect”.

Which “first-pass activity according to Protocol C” value (human cytochrome P450; 2000 nM, in words) does the source give for `CC(C)=CCOc1c2occc2cc2ccc(=O)oc12` [imperatorin] here?
The value was “non-first-pass inhibiting”.

What about the “first-pass effect inhibition” value (human cytochrome P450; in words) of the same molecule?
The value was “ineffective”.

With `COc1c2ccoc2c(OC)c2oc(=O)ccc12` [isopimpinellin] as the molecule, how does the “first-pass effect inhibition” value (human cytochrome P450; in words) read?
The value was “ineffective”.

Which “inhibition of the first-pass effect” value (first-pass effect) does the source give for `CCC(C)n1ncn(-c2ccc(N3CCN(c4ccc(OCC5COC(Cn6cncn6)(c6ccc(Cl)cc6Cl)O5)cc4)CC3)cc2)c1=O` (stereo not shown) [itraconazole] here?
The value was “identified as inhibitors of the first-pass effect”.

Which “reduction of the dose of cyclosporin required” value [2] does the source give for `CC(=O)N1CCN(c2ccc(OCC3COC(Cn4ccnc4)(c4ccc(Cl)cc4Cl)O3)cc2)CC1` (stereo not shown) [ketoconazole] here?
The value was “approximately 85%”.

And the “inhibition of the first-pass effect” value (first-pass effect)?
The value was “inhibition of the first-pass effect of cyclosporin; also recorded: identified as inhibitors of the first-pass effect”.

With `Clc1ccc(COC(Cn2ccnc2)c2ccc(Cl)cc2Cl)c(Cl)c1` (stereo not shown) [miconazole] as the molecule, how does the “inhibition of the first-pass effect” value (first-pass effect) read?
The value was “identified as inhibitors of the first-pass effect”.

What does the source list for `O=c1ccc2cc3ccoc3cc2o1` [psoralen]?
first-pass effect inhibition (determined herein) (human cytochrome P450; in words): ineffective; inhibition of cytochrome P450 (cytochrome P450): do inhibit cvtochrome P450; toxicity / phototoxicity [1]: toxic, in particular, phototoxic

With `CC(C)c1nc(CN(C)C(=O)N[C@H](C(=O)N[C@@H](Cc2ccccc2)C[C@H](O)[C@H](Cc2ccccc2)NC(=O)OCc2cncs2)C(C)C)cs1` [ritonavir] as the molecule, how does the “inhibition of the first-pass effect” value (first-pass effect) read?
The value was “identified as inhibitors of the first-pass effect”.

Which “increase of bioavailability by inhibitors” value [3] does the source give for `Cc1nnc2n1-c1ccc(Cl)cc1C(c1ccccc1Cl)=NC2` [triazolam] here?
Its value is “bioavailability is increased by inhibitors”.

Which “inhibition of the first-pass effect” value (first-pass effect) does the source give for `CO[C@H]1C[C@H](O[C@H]2[C@H](C)[C@@H](O[C@@H]3O[C@H](C)C[C@H](N(C)C)[C@H]3OC(C)=O)[C@@H](C)C[C@@]3(CO3)C(=O)[C@H](C)[C@@H](OC(C)=O)[C@@H](C)[C@@H](C)OC(=O)[C@@H]2C)O[C@@H](C)[C@@H]1OC(C)=O` [troleandomycin] here?
Its value is “identified as inhibitors of the first-pass effect”.

Which toxicity / phototoxicity [1] does the source give for `COc1c2occc2cc2ccc(=O)oc12` [xanthotoxin, 8-methoxypsoralen] here?
Its toxicity / phototoxicity is “toxic, in particular, phototoxic”.
